In ChEMBL document CHEMBL3865791, “Discovery and development of natural product oridonin-inspired anticancer agents” (Eur J Med Chem, 2016):
Structures can show the parent of a compound that is named as a salt.

Experiments:
[1] = Antiproliferative activity against human […] cells after 72 hrs by MTT assay; assay type: functional, cell-based
[2] = Antiproliferative activity against human K562 cells after 72 hrs by MTT assay; assay type: functional, cell-based; conditions: K562, 72 h
[3] = Antiproliferative activity against human CaEs17 cells after 72 hrs by MTT assay; assay type: functional, cell-based; conditions: CaEs17, 72 h
[4] = Antiproliferative activity against human MGC803 cells after 72 hrs by MTT assay; assay type: functional, cell-based; conditions: MGC-803, 72 h
[5] = Toxicity in iv dosed Sprague-Dawley rat administered qd for 28 days; assay type: organism-based; conditions: in vivo
[6] = Antiproliferative activity against human MDA-MB-231 cells; assay type: functional, cell-based
[7] = Antiproliferative activity against human MCF7 cells; assay type: functional, cell-based
[8] = Antiproliferative activity against human MDA-MB-231 cells measured after 48 hrs by MTT assay; assay type: functional, cell-based; conditions: MDA-MB-231, 48 h
[9] = Antiproliferative activity against human ER-triple negative MDA-MB-468 cells measured after 48 hrs by MTT assay; assay type: functional, cell-based; conditions: MDA-MB-468, 48 h
[10] = Antiproliferative activity against human MCF7/ADR cells measured after 48 hrs by MTT assay; assay type: functional, cell-based; conditions: NCI/ADR-RES
[11] = Antiproliferative activity against human ER-positive MCF7 cells measured after 48 hrs by MTT assay; assay type: functional, cell-based; conditions: MCF7, 48 h
[12] = Cytotoxicity against human K562 cells by MTT assay; assay type: functional, cell-based
MDA-MB-231 = test: Potency index, ratio of Oridonin EC50 to compound EC50 for human MDA-MB-231; assay type: functional
[13] = Antitumor activity against H22 cells xenografted in ICR mouse assessed as tumor growth inhibition at 20 mg/kg/day, ip administered for 4 consecutive days relative to control; assay type: functional; conditions: read-out: TGI
[14] = Antiproliferative activity against human […] cells after 24 hrs by MTT assay; assay type: functional, cell-based
[15] = Antitumor activity against human MGC803 cells xenografted in ICR mouse assessed as tumor growth inhibition at 40 mg/kg/day, ip for 25 consecutive days relative to control; assay type: functional; conditions: MGC-803, ip, read-out: TGI

Structure (SMILES)	EC50 [1] [nM]	EC50 [2] [nM]	EC50 [8] [nM]	EC50 [9] [nM]	EC50 [10] [nM]	EC50 [11] [nM]	further results
C=C1C(=O)[C@@]23C(=O)O[C@H]4CCC(C)(C)[C@H]5[C@H](O)OC[C@@]45[C@@H]2CC[C@@H]1[C@H]3OC(C)=O	1970	1110					EC50 [3]: 1590 nM; EC50 [4]: 1990 nM
C=C1C(=O)[C@@]23C(=O)O[C@H]4CCC(C)(C)[C@H]5[C@H](O)OC[C@@]45[C@@H]2CC[C@@H]1[C@H]3OC(=O)c1ccccc1	1420	210					EC50 [3]: 540 nM; EC50 [4]: 930 nM
C=C1C(=O)[C@@]23C(=O)O[C@H]4CCC(C)(C)[C@H]5[C@H](O)OC[C@@]45[C@@H]2CC[C@@H]1[C@H]3OC(=O)c1ccc(C)cc1	1010	140					EC50 [3]: 450 nM; EC50 [4]: 610 nM
C=C1C(=O)[C@@]23C(=O)O[C@H]4CCC(C)(C)[C@H]5[C@H](O)OC[C@@]45[C@@H]2CC[C@@H]1[C@H]3OC(=O)c1ccccc1Cl	850	220					EC50 [3]: 600 nM; EC50 [4]: 800 nM
C=C1C(=O)[C@@]23C(=O)O[C@H]4CCC(C)(C)[C@H]5C(=O)OC[C@@]45[C@@H]2CC[C@@H]1[C@H]3OC(C)=O	1370	350					EC50 [3]: 690 nM; EC50 [4]: 1270 nM
C=C1C(=O)[C@]23[C@H](OC(=O)[C@H](C)N)[C@H]1CC[C@H]2[C@@]12CO[C@@]3(O)[C@@H](O)[C@@H]1C(C)(C)CC[C@@H]2O.O=C(O)C(F)(F)F							NOAEL at 672 h [5]: 40 mg/kg
C=C1C(=O)[C@]23[C@H](O)[C@H]1CC[C@H]2[C@@]12CO[C@@]3(O)[C@@H](O)[C@@H]1C(C)(C)Cc1sc(NC)nc12							EC50 [6]: 2100 nM; EC50 [7]: 1300 nM
C=CCO[C@@H]1CCC2=C(O1)[C@@]13CO[C@@]4(OC(C)(C)O[C@@H]5[C@H]6CC[C@@H]1[C@]54C(=O)C6=C)[C@@H](O)[C@@H]3C(C)(C)C2			3300	4400	3200	2100	
C=C1C(=O)[C@]23[C@H](O)[C@H]1CC[C@H]2[C@@]12CO[C@@]3(O)[C@@H](O)[C@@H]1C(C)(C)Cc1sc(NCCCC)nc12							EC50 [6]: 1100 nM; EC50 [7]: 600 nM
CC(=O)[C@@H]1CC[C@H]2[C@@]34CO[C@@]5(O)[C@@H](OC(=O)[C@]25[C@@H]1O)[C@@H]3C(C)(C)CC[C@@H]4O							EC50 [12]: 18500 nM
C=C1C(=O)[C@]23[C@H](O)[C@H]1CC[C@H]2[C@@]12CO[C@@]3(O)[C@@H](O)[C@@H]1C(C)(C)Cc1sc(N3CCCCCC3)nc12							EC50 [6]: 6800 nM; EC50 [7]: 1200 nM
C=C1C(=O)[C@@]23[C@@H]4OC(C)(C)O[C@@]25OC[C@]2(C6=C(CC[C@H](OCCCl)O6)CC(C)(C)[C@H]2[C@@H]5O)[C@@H]3CC[C@@H]14			3300	3000	3100	2300	
C=CCNc1nc2c(s1)CC(C)(C)[C@H]1[C@H](O)[C@]3(O)OC[C@@]21[C@@H]1CC[C@H]2C(=C)C(=O)[C@]13[C@@H]2O							EC50 [6]: 200 nM; Ratio EC50 (MDA-MB-231): 147; EC50 [7]: 200 nM
C=C1C(=O)[C@@]23[C@@H]4OC(C)(C)O[C@@]25OC[C@]2(C6=C(CC[C@H](OCC(C)C)O6)CC(C)(C)[C@H]2[C@@H]5O)[C@@H]3CC[C@@H]14			1800	2600	4400	2200	
C=C1C(=O)[C@]23[C@H](OC(=O)CC(CCCCCCCCCCCC)C(=O)O)[C@H]1CC[C@H]2[C@@]12CO[C@@]3(O)[C@@H](O)[C@@H]1C(C)(C)CC[C@@H]2O (some centres undefined)							inhibition in vivo at 20 mg/kg/day [13]: 63.7%; EC50 [14]: 2060 nM
C=C1C(=O)[C@]23[C@H](O)[C@H]1CC[C@H]2[C@@]12CO[C@@]3(O)[C@@H](O)[C@@H]1C(C)(C)Cc1sc(NC(=N)N)nc12							EC50 [6]: > 10000 nM; EC50 [7]: 3400 nM
C=C1C(=O)[C@@]23C(=O)O[C@H]4CCC(C)(C)[C@H]5C(=O)OC[C@@]45[C@@H]2CC[C@@H]1[C@H]3OC(=O)c1ccccc1	790	330					EC50 [3]: 810 nM; EC50 [4]: 460 nM
C=C1C(=O)[C@@]23[C@@H]4OC(C)(C)O[C@@]25OC[C@]2(C6=C(CC[C@H](OCCCC)O6)CC(C)(C)[C@H]2[C@@H]5O)[C@@H]3CC[C@@H]14			2200	3000	3800	2400	

Structure (SMILES)	EC50 [1] [nM]	EC50 [2] [nM]	EC50 [8] [nM]	EC50 [9] [nM]	EC50 [10] [nM]	EC50 [11] [nM]	further results
C=C1C(=O)[C@]23[C@H](O)[C@H]1CC[C@H]2[C@@]12CO[C@@]3(O)[C@@H](O)[C@@H]1C(C)(C)Cc1sc(NCCN3CCCCC3)nc12							EC50 [6]: 1800 nM; EC50 [7]: 1000 nM
C=C1C(=O)[C@]23[C@H](O)[C@H]1CC[C@H]2[C@@]12CO[C@@]3(O)[C@@H](O)[C@@H]1C(C)(C)Cc1sc(N)nc12							EC50 [6]: 3200 nM; EC50 [7]: 1000 nM
C=C1C(=O)[C@@]23C(=O)O[C@H]4CCC(C)(C)[C@H]5C(=O)OC[C@@]45[C@@H]2CC[C@@H]1[C@H]3OC(=O)c1ccc(Cl)cc1	890	140					EC50 [3]: 340 nM; EC50 [4]: 340 nM
C=C1C(=O)[C@@]23C(=O)O[C@H]4CCC(C)(C)[C@H]5C(=O)OC[C@@]45[C@@H]2CC[C@@H]1[C@H]3OC(=O)c1cccnc1	710	1740					EC50 [3]: 3540 nM; EC50 [4]: 1160 nM; inhibition in vivo at 40 mg/kg/day [15]: 64.8%
C=C1C(=O)[C@@]23[C@@H]4OC(C)(C)O[C@@]25OC[C@]2(C6=C(CC[C@@H](OCC)O6)CC(C)(C)[C@H]2[C@@H]5O)[C@@H]3CC[C@@H]14			540	520	1600	440	
C=C1C(=O)[C@@]23[C@@H]4OC(C)(C)O[C@@]25OC[C@]2(C6=C(CC[C@H](OCC)O6)CC(C)(C)[C@H]2[C@@H]5O)[C@@H]3CC[C@@H]14			6100	5400	4700	3500	
C=C1C(=O)[C@@]23[C@@H]4OC(C)(C)O[C@@]25OC[C@]2([C@@H](n6cc(-c7ccccc7)nn6)C=CC(C)(C)[C@H]2[C@@H]5O)[C@@H]3CC[C@@H]14			480				Ratio EC50 (MDA-MB-231): 61
C=C1C(=O)[C@]23[C@H](OC(=O)c4ccccc4C(=O)OCCCOc4no[n+]([O-])c4S(=O)(=O)c4ccccc4)[C@H]1CC[C@H]2[C@@]12CO[C@@]3(O)[C@@H](O)[C@@H]1C(C)(C)CC[C@@H]2O	860	1820					
C=CCO[C@H]1CCC2=C(O1)[C@@]13CO[C@@]4(OC(C)(C)O[C@@H]5[C@H]6CC[C@@H]1[C@]54C(=O)C6=C)[C@@H](O)[C@@H]3C(C)(C)C2			7100	4900	4300	4300	
C=C1C(=O)[C@]23[C@H](O)[C@H]1CC[C@H]2[C@@]12CO[C@@]3(O)[C@@H](O)[C@@H]1C(C)(C)Cc1sc(NC(C)=O)nc12							EC50 [6]: 6800 nM; EC50 [7]: 2000 nM
C=C1C(=O)[C@@]23[C@@H]4OC(C)(C)O[C@@]25OC[C@]2(C6=C(CC[C@@H](OCCCl)O6)CC(C)(C)[C@H]2[C@@H]5O)[C@@H]3CC[C@@H]14			7200	7300	8700	6800	
C=C1C(=O)[C@@]23C(=O)O[C@H]4CCC(C)(C)[C@H]5C(=O)OC[C@@]45[C@@H]2CC[C@@H]1[C@H]3OC(=O)c1ccc(C)cc1	1580	520					EC50 [3]: 1780 nM; EC50 [4]: 1540 nM
C=C1C(=O)[C@@]23[C@@H]4OC(C)(C)O[C@@]25OC[C@]2(C6=C(CC[C@@H](OCC(C)C)O6)CC(C)(C)[C@H]2[C@@H]5O)[C@@H]3CC[C@@H]14			8200	7000	10300	5800	
C=C1C(=O)[C@]23[C@H](O)[C@H]1CC[C@H]2[C@@]12CO[C@@]3(O)[C@@H](O)[C@@H]1C(C)(C)Cc1sc(N(C)C)nc12							EC50 [6]: 300 nM; EC50 [7]: 800 nM
C=C1C(=O)[C@@]23C(=O)O[C@H]4CCC(C)(C)[C@H]5C(=O)OC[C@@]45[C@@H]2CC[C@@H]1[C@H]3OC(=O)c1ccccc1Cl	720	260					EC50 [3]: 280 nM; EC50 [4]: 820 nM
C=C1C(=O)[C@@]23[C@@H]4OC(C)(C)O[C@@]25OC[C@]2(C6=C(CC[C@@H](OCCCC)O6)CC(C)(C)[C@H]2[C@@H]5O)[C@@H]3CC[C@@H]14			3700	5800	6800	2400	
C=C1C(=O)[C@]23[C@H](O)[C@H]1CC[C@H]2[C@@]12CO[C@@]3(O)[C@@H](O)[C@@H]1C(C)(C)Cc1sc(NC3CCCCC3)nc12							EC50 [6]: 800 nM; EC50 [7]: 900 nM
COc1cccc2c1C(=O)c1c(O)c3c(c(O)c1C2=O)C[C@@](O)(C(=O)CO)C[C@@H]3O[C@H]1C[C@H](N)[C@H](O)[C@H](C)O1 [DOXORUBICIN HYDROCHLORIDE]			2300	700	> 10000	700	
